“Also recorded” adds a separate entry of the source.
Columns and labels:
Format in all cases: in vivo
Male ICR mice [1] = assay: Novelty suppressed feeding test (NSF); settings: 1 h prior to test, vs saline-treated mice
Method: NSF test consisted of food-depriving mice overnight (24 hours). The test drug (10, 20 and 30 mg/kg), ketamine (10 mg/kg) or saline was administered 1 h prior to the test. At the time of testing, a single food pellet placed in the middle of a novel environment (a test box 40×40×40 cm). The latency to start feeding was used as a measure for depressive-like or anxiety-like behavior.

Male ICR mice [2] = assay: Social interaction test
Method: This protocol was modified from the original social interaction test (Lin et al. 2010; Qiao et al. 2001). The social interaction between pairs of mice was examined in an open-field box (35×35×30 cm) under normal room lighting. The paired mice were randomly assigned from different home cages with the same drug treatment. […] Five minutes later, each pair of unfamiliar mice was placed in the apparatus for 10 min and the total time that a pair spent in social interaction and specific social interaction behaviors (sniffing the partner, following, mounting, and crawling under or over the partner) were recorded by an observer who was blind to the drug treatments.

Male ICR mice [3] = assay: Loss of righting reflex (LORR)
Method: The test drug betaine (0, 300, and 600 mg/kg) or DMG (0, 100 and 300 mg/kg) was administered 30 min prior to the anesthetic doses of ketamine (100 mg/kg). Then, the mice were placed in a clean cage until the righting reflex was lost. They were then placed in the supine position until recovery and the onset and duration of the loss of righting reflex was recorded. Recovery of the righting reflex was defined as the ability to perform three successive rightings.

Male ICR mice [4] = assay: Open field test / locomotor activity
Method: To evaluate the effect of DMG on ketamine-induced locomotor hyperactivity, the animals were moved from the home cage, weighed and placed into an activity cage (Columbus Auto-Track System, Version 3.0 A, Columbus Institute, Columbus, Ohio, USA) for 2 hours. Thereafter, the test drug (0, 30, and 100 mg/kg) was given 30 min prior to ketamine (30 mg/kg) or saline. The distance (cm) traveled was recorded for totally 180 min. A 70% alcohol solution was used to clean the inner surface of all the testing apparatus between trials to remove any potentially interfering odors left by the previous mouse.

Male Sprague-Dawley rats = assay: Ketamine intravenous self-administration (IVSA) under progressive ratio (PR) schedule
Method: The dose-dependent effects of betaine and its metabolite DMG on ketamine addiction were evaluated by the intravenous self-administration (IVSA) paradigm under a progressive ratio (PR) schedule. Animals were implanted indwelling catheters flushing of ketamine (0.5 mg/kg/per infusion), termed the training dose, under a FR1 schedule during daily 3-h sessions. After acquisition of stable responding for ketamine (criterion of less than 20% deviation from the mean of the total number of reinforcers earned in three consecutive sessions for each rat), the ketamine reinforcement schedule was changed to FR2 and maintained until responding stabilized at least for 3 days. Then, the PR schedule was conducted. The lever presses required to gain an infusion was determined by: 5×e^(infusion number×0.2)−5 (i.e., 1, 2, 4, 6, 9, […], 15, 20, 25, 32, etc). […] The dose-dependent effects of betaine of self-administration of various doses of ketamine ([…]) were assessed by pretreatment 30 min prior to their daily operant session using a within-subject Latin square design.

Male ICR mice [5] = assay: Forced swim test (FST): duration of immobility, struggling and swimming; settings: for duration of struggling in FST: betaine 20 mg/kg prior to ketamine 10 mg/kg
[6] = betaine 300 and 600 mg/kg 30 min prior to ketamine 100 mg/kg
[7] = betaine 30 and 100 mg/kg alone, 60 min after administration

CNC1(c2ccccc2Cl)CCCCC1=O (racemic) [ketamine]
latency to feed in the NSF (Male ICR mice [1]; ketamine 10 mg/kg): significantly reduced
social interaction duration (Male ICR mice [2]; ketamine 30 mg/kg): reduction
loss of righting reflex (Male ICR mice [3]; ketamine 100 mg/kg i.p. (anesthetic dose)): produced a loss of righting reflex; also recorded: produced LORR
total travel distances after ketamine administration (Male ICR mice [4]; ketamine 30 mg/kg, measured for 30 min): increased
ketamine consumption over the dose-response curve (Male Sprague-Dawley rats; ketamine 0.1-0.5 mg/kg/infusion, control (vehicle-treated) animals): increase

C[N+](C)(C)CC(=O)O [betaine]
latency to feed in the NSF (Male ICR mice [1]; betaine 30 mg/kg i.p.): significantly reduced
reduction in social interaction duration induced by ketamine (Male ICR mice [2]; betaine 30 and 100 mg/kg i.p. prior to ketamine 30 mg/kg): significantly attenuated
duration of ketamine-induced loss of righting reflex (Male ICR mice [3]; [6]): did not affect
onset of ketamine-induced loss of righting reflex (Male ICR mice [3]; [6]): did not affect
ketamine-induced locomotor hyperactivity (Male ICR mice [4]; betaine 30 and 100 mg/kg 30 min prior to ketamine 30 mg/kg): not affected
time in center (Male ICR mice [4]; [7]): did not affect
travel distances (locomotor activity) (Male ICR mice [4]; [7]): did not affect
reduction of ketamine IVSA (Male Sprague-Dawley rats; betaine 100 mg/kg pretreatment, PR schedule): 3-5 times
IVSA of ketamine (Male Sprague-Dawley rats; betaine pretreatment (30 and 100 mg/kg), ketamine 0.1-0.5 mg/kg/infusion, PR schedule): dose-dependently reduced
significant effective dose for reduction of ketamine IVSA (Male Sprague-Dawley rats; betaine pretreatment, PR schedule): 30 mg/kg
duration of struggling in FST (Male ICR mice [5]; day 1 test session, vs control): significantly increased
duration of struggling in FST (Male ICR mice [5]; over both sessions): significantly increased
duration of swimming in FST (Male ICR mice [5]; betaine 10, 20 and 30 mg/kg pretreatment prior to ketamine 10 mg/kg, day 1 test session, vs control): significantly increased
duration of swimming in FST (Male ICR mice [5]; betaine 10, 20 and 30 mg/kg pretreatment prior to ketamine 10 mg/kg, over both sessions): significantly increased
duration of swimming in FST (Male ICR mice [5]; betaine 20 and 30 mg/kg, over both sessions): significantly increased

— US11213495B2, “Method and composition for decreasing the psychotomimetic side effect and addictive disorder of ketamine” (NATIONAL HEALTH RESEARCH INSTITUTES, priority 2016, dated 2022)
